ChEMBL document CHEMBL4311943, “3-[(1S,2S,3R)-2,3-Difluoro-1-hydroxy-7-methylsulfonylindan-4-yl]oxy-5-fluorobenzonitrile (PT2977), a Hypoxia-Inducible Factor 2α (HIF-2α) Inhibitor for the Treatment of Clear Cell Renal Cell Carcinoma” (J Med Chem, 2019)
The source made the active and inactive calls. No cut-off for these calls is given here.

Columns and labels:
[1] = molecular target: T1, UGT2B17 (Homo sapiens, UniProt O75795); assay: Substrate activity at recombinant human UGT2B17 expressed in baculovirus infected insect cell membranes assessed as enzyme-mediated glucuronidation by measuring Km at 50 uM preincubated for 5 mins followed by UDPGA addition and measured after 60 mins by LC-MS/MS analysis; format: ADME
T1 sequence (O75795 whole entry): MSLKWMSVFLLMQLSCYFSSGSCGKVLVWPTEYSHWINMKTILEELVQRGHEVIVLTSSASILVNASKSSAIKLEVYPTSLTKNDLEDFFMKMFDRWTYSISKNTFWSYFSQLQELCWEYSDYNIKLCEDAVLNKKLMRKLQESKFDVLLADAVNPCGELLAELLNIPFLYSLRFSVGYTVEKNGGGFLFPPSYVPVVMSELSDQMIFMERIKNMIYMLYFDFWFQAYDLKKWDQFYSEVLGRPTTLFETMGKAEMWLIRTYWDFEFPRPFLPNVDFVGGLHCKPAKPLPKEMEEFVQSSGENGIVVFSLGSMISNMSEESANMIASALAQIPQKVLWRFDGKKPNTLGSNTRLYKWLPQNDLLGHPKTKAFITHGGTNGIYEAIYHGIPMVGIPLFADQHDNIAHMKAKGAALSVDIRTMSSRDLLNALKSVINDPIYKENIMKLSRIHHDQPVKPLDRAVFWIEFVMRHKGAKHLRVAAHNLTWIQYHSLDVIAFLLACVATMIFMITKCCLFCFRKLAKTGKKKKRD

[2] = AUClast in patient with advanced solid tumor at 20 mg, po administered once daily measured on day 15; format: ADME, organism-based; parameters: dose 20 mg, route oral, time 0 - last; conditions: human, in vivo
[3] = molecular target: Voltage-gated inwardly rectifying potassium channel KCNH2 (Homo sapiens, UniProt Q12809); assay: Activity at human ERG at 10 uM
[4] = molecular target: 5-hydroxytryptamine receptor 2C (Homo sapiens) (UniProt P28335); assay: Activity at human 5-HT2C receptor at 10 uM
[5] = Plasma concentration in patient with advanced solid tumor at 240 mg, po administered once daily measured on day 15 after 24 hrs; format: ADME, organism-based; conditions: human
[6] = molecular target: Vasopressin V1a receptor (Homo sapiens) (UniProt P37288); assay: Activity at human V1A receptor at 10 uM
Sequence of Vasopressin V1a receptor (Homo sapiens) (P37288 whole entry, looked up): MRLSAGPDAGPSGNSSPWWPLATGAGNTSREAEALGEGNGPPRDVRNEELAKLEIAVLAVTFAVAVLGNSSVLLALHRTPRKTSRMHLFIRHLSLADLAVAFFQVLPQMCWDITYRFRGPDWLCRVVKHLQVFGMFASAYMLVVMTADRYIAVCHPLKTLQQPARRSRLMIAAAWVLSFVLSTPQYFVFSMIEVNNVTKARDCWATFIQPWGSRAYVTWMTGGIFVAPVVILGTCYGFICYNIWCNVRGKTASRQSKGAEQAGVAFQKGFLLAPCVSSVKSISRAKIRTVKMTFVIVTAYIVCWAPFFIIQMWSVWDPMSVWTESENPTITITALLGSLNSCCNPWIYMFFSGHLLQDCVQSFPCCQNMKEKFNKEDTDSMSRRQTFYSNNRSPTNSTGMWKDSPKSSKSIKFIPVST

[7] = molecular target: Sodium channel protein type 5 subunit alpha (Homo sapiens, UniProt Q14524); assay: Activity at human Nav1.5 at 10 uM
Sequence of Sodium channel protein type 5 subunit alpha (Q14524 whole entry): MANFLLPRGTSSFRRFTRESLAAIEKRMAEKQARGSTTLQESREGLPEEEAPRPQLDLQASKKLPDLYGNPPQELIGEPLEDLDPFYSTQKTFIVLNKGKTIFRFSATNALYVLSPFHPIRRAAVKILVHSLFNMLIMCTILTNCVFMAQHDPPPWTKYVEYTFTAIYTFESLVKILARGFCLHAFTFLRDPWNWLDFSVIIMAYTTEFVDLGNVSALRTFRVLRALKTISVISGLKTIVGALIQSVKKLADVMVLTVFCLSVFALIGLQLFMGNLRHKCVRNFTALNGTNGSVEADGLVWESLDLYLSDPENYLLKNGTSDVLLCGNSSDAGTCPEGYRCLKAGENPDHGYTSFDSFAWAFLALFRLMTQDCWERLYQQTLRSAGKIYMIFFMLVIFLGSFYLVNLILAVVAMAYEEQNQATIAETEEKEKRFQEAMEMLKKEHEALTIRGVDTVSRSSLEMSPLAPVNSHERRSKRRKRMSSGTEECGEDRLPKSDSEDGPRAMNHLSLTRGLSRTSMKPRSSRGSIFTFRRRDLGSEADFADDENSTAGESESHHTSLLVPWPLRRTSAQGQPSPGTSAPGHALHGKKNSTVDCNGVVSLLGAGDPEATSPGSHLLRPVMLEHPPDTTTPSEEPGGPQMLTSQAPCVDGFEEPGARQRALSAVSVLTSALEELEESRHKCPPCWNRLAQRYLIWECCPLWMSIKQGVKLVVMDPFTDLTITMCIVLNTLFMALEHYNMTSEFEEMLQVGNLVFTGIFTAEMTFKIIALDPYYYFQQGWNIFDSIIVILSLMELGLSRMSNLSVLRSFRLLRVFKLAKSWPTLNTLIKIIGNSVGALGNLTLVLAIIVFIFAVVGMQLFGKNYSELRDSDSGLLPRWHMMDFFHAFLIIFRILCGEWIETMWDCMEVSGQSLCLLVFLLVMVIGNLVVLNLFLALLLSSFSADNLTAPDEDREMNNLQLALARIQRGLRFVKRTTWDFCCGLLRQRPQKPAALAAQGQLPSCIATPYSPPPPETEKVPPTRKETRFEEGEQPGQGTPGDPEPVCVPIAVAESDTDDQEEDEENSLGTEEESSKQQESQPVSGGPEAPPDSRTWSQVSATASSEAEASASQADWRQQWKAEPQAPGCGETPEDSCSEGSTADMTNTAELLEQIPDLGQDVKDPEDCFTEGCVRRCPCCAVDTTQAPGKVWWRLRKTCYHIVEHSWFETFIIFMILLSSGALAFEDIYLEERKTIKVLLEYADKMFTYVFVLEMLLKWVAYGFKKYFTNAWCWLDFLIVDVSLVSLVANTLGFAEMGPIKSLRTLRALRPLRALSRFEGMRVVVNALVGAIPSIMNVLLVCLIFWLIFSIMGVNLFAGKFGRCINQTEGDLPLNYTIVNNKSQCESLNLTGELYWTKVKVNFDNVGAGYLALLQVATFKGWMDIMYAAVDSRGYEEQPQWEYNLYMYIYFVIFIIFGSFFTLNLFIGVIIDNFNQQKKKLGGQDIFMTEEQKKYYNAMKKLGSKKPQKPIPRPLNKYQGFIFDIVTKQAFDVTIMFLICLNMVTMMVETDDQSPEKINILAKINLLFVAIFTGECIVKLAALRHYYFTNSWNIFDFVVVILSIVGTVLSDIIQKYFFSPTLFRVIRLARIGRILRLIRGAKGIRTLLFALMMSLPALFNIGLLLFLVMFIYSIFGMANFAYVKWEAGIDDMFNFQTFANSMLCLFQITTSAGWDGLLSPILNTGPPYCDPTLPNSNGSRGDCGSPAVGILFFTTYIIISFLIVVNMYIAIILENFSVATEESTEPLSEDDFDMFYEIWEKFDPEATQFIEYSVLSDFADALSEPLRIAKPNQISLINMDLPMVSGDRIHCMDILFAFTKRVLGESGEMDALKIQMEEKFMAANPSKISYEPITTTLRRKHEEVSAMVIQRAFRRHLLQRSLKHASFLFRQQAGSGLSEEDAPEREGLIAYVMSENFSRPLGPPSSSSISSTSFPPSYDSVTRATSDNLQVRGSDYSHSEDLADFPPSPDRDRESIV

[8] = molecular target: Inward rectifier potassium channel 2 (Homo sapiens, UniProt P63252); assay: Activity at human Kir2.1 at 10 uM
Sequence of Inward rectifier potassium channel 2 (P63252 whole entry): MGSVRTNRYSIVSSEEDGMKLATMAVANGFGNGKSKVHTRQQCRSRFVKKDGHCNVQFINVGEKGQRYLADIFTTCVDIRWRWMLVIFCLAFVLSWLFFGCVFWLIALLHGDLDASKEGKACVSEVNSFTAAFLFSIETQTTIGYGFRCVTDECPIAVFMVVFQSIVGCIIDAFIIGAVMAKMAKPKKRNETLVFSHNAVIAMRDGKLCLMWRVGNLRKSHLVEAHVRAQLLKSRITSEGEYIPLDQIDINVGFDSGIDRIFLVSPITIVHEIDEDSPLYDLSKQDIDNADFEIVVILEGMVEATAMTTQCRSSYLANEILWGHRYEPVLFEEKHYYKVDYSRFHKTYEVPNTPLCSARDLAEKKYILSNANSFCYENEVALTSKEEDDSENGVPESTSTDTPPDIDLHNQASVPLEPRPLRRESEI

[9] = AUClast in patient with advanced solid tumor at 240 mg, po administered once daily measured on day 15; format: ADME, organism-based; parameters: dose 240 mg, time 0 - last, route oral; conditions: human, in vivo
[10] = molecular target: Mu-type opioid receptor (Homo sapiens) (UniProt P35372); assay: Activity at human mu opioid receptor at 10 uM
[11] = molecular target: Endothelin receptor type B (Homo sapiens) (UniProt P24530); assay: Activity at human ETB receptor at 10 uM
[12] = molecular target: Potassium/sodium hyperpolarization-activated cyclic nucleotide-gated channel 4 (Homo sapiens) (UniProt Q9Y3Q4); assay: Activity at human HCN4 at 10 uM
[13] = molecular target: C-X-C chemokine receptor type 1 (Homo sapiens) (UniProt P25024); assay: Activity at human CXCR1 receptor at 10 uM
[14] = molecular target: Vasoactive intestinal polypeptide receptor 1 (Homo sapiens) (UniProt P32241); assay: Activity at human VPAC1 long isoform at 10 uM
[15] = molecular target: RAC-beta serine/threonine-protein kinase (Homo sapiens) (UniProt P31751); assay: Activity at human PKBbeta at 10 uM
[16] = molecular target: Prostaglandin F2-alpha receptor (Homo sapiens) (UniProt P43088); assay: Activity at human Prostanoid FP receptor at 10 uM
[17] = Dose normalized AUClast in monkey at 5 mg/kg, po administered via gavage by UPLC-MS analysis; format: ADME, organism-based, Macaca mulatta; conditions: rhesus monkey, in vivo
[18] = molecular target: Histamine H1 receptor (Homo sapiens) (UniProt P35367); assay: Activity at human H1 receptor at 10 uM
Sequence of Histamine H1 receptor (Homo sapiens) (P35367 whole entry): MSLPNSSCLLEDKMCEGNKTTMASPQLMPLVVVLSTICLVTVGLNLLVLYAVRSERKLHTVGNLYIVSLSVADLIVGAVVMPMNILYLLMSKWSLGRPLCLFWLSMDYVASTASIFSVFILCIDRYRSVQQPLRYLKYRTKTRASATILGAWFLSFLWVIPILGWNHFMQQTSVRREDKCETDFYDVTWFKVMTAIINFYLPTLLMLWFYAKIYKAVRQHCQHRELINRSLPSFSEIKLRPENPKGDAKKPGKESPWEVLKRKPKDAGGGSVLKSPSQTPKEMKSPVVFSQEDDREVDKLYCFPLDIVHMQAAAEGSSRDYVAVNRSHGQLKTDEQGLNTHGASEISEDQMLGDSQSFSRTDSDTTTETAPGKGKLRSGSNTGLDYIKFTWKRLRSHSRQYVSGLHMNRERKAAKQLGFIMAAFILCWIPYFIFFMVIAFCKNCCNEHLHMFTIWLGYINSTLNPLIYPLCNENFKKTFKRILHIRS

[19] = Clearance in CD-1 mouse at 3 mg/kg, iv by UPLC-MS analysis; format: ADME, organism-based; conditions: in vivo
[20] = molecular target: CX3C chemokine receptor 1 (Homo sapiens) (UniProt P49238); assay: Activity at human CX3CR1 receptor at 10 uM
[21] = species: Homo sapiens; assay: Activity at human Proteinase activated receptor at 10 uM
[22] = molecular target: Prokineticin receptor 1 (Homo sapiens) (UniProt Q8TCW9); assay: Activity at human PK1 receptor at 10 uM
[23] = Plasma concentration in patient with advanced solid tumor at 80 mg, po administered once daily measured on day 15 after 24 hrs; format: ADME, organism-based; conditions: human
[24] = molecular target: Calcitonin gene-related peptide type 1 receptor (Homo sapiens) (UniProt Q16602); assay: Activity at human CGRP1 at 10 uM
Sequence of Calcitonin gene-related peptide type 1 receptor (Homo sapiens) (Q16602 whole entry, looked up): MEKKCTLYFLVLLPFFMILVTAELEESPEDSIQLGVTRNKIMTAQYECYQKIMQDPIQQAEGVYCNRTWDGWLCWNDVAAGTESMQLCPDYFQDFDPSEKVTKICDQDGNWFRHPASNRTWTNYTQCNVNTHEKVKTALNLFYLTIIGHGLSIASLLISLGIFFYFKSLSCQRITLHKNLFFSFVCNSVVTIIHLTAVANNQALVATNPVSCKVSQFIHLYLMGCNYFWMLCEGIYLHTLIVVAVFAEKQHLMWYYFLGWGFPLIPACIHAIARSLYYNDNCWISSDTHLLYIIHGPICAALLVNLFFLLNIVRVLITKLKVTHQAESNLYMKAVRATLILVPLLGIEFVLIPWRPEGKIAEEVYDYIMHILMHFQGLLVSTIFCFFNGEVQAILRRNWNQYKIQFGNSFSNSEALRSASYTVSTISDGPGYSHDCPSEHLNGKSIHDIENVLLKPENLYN

[25] = molecular target: Neuromedin-U receptor 1 (Homo sapiens) (UniProt Q9HB89); assay: Activity at human NMU1 receptor at 10 uM
Sequence of Neuromedin-U receptor 1 (Homo sapiens) (Q9HB89 whole entry): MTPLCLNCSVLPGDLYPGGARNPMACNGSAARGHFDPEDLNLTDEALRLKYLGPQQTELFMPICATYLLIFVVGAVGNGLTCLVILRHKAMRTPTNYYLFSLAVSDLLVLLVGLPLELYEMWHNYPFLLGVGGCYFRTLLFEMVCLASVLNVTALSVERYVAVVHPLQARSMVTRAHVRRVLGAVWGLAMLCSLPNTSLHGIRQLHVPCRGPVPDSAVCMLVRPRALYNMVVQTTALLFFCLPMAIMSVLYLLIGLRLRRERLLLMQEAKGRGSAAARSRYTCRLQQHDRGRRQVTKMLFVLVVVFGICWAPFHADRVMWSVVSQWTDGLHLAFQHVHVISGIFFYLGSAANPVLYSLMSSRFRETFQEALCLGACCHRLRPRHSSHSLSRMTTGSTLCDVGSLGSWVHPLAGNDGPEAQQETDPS

[26] = molecular target: A-type voltage-gated potassium channel KCND3 (Homo sapiens, UniProt Q9UK17); assay: Activity at human Kv4.3 at 10 uM
Sequence of A-type voltage-gated potassium channel KCND3 (Q9UK17 whole entry): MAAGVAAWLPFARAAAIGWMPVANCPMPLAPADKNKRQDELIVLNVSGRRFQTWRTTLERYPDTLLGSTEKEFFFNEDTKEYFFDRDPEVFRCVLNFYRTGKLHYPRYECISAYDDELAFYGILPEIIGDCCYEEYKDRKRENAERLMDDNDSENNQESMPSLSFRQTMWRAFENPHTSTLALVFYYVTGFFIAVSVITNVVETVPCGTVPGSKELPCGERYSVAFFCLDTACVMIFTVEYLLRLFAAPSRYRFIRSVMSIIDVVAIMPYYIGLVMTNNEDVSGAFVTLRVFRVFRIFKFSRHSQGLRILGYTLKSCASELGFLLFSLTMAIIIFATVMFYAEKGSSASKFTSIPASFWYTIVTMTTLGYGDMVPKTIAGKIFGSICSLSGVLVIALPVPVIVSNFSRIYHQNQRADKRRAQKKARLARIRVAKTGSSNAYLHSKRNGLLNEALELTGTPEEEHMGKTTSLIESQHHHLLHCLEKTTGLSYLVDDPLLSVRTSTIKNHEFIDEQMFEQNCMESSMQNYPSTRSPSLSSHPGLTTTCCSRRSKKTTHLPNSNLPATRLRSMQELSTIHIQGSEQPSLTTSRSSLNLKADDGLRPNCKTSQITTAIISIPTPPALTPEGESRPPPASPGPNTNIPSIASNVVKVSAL

[27] = molecular target: Parathyroid hormone/parathyroid hormone-related peptide receptor (Homo sapiens) (UniProt Q03431); assay: Activity at human PTH1 receptor at 10 uM
[28] = Cmax in patient with advanced solid tumor at 80 mg, po administered once daily measured on day 15; format: ADME, organism-based; parameters: dose 80 mg, route oral; conditions: human, in vivo
[29] = molecular target: Potassium voltage-gated channel subfamily KQT member 1 (Homo sapiens, UniProt P51787); assay: Activity at human KCNQ1 at 10 uM
[30] = Half life in patient with advanced solid tumor at 120 mg, po administered once daily measured on day 15; format: ADME, organism-based; conditions: human, in vivo
[31] = molecular target: Thyrotropin receptor (Homo sapiens) (UniProt P16473); assay: Activity at human TSH at 10 uM

Km at 1 h, 50 µM [1]: 10 µM | AUC(0-t) [2]: 2100 ng·h/mL | Activity [4]: inactive | concentration at 24 h [5]: 570 ng/mL | Activity [6]: inactive | Activity [8]: Not Active | AUC(0-t) [9]: 28000 ng·h/mL | Activity [10]: inactive | Activity [11]: inactive | Activity [12]: inactive | Activity [13]: inactive | Activity [14]: inactive | Activity [15]: inactive | Activity [16]: inactive | AUClast/dose [17]: 31 µM·h | Activity [18]: inactive | clearance [19]: 21 mL/min/kg | Activity [20]: inactive | Activity [21]: inactive | Activity [22]: inactive | concentration at 24 h [23]: 490 ng/mL | Activity [24]: inactive | Activity [25]: inactive | Activity [26]: Not Active | Activity [27]: inactive | Cmax [28]: 1400 ng/mL | Activity [29]: Not Active | half-life [30]: 20.9 h | Activity [31]: inactive
SMILES: CS(=O)(=O)c1ccc(Oc2cc(F)cc(C#N)c2)c2c1[C@H](O)[C@H](F)[C@@H]2F [BELZUTIFAN]
Activity [3]: Not Active | Activity [7]: Not Active
